Data: patent US20040019066A1, “Methionine salvage pathway in bacillus” (priority 2002, published 2004)
Entries after “also recorded” stand apart in the source; their conditions may differ.

Columns and labels:
[1] = tested on: B. subtilis 168 and mtn region mutants; settings: Bacillus subtilis; reference [5]; cited from earlier work
[2] = tested on: B. subtilis 168 and mtn region mutants; assay: Growth on MTR as sole sulfur source (ED1 minimal medium plates); assay type: cell-based, Bacillus subtilis
Experimental: Panel A: ED1 minimal mediums plate with 1 mM IPTG containing 0.2 mM MTR as sole sulfur source WT, metI (BSIP 1143), mtnS (BSHP7010), mtnK (BFS1850), mtnU (BFS1851), mtnV (BSHP7020), mtnW (BSHP7014), mtnX (BFS1852), mtnY (BSHP7016) and mtnZ (BFS 1853) were inoculated for over-night growth at 37° C. No growth of mtnS, mtnK, mtnW and mtnY is represented by an example of absence of growth around a disc with MTR of mtnY mutant in panel B. Normal growth of […] and mtnX is represented by an example of normal growth around a disc with MTR of mtnV mutant in panel C.
Using the collection of mutants constructed during the Bacillus subtilis functional analysis, program (http://locus.jouy.inra.fr/cgi-bin/genmic/madbase/progs/madbase.oper] and http://bacillus.genome.adjp, [9]) and constructing mutants which were not available in the collection, we tested all genes in the region for their phenotype of growth on MTR as the sole sulfur source.
Bacterial strains and plasmids, and growth media: E. coli and B. subtilis strains as well as plasmids used in this work are listed in Table 3. E. coli TG1 and XL1-Blue were used for cloning experiments (TG1 for single cross-over recombination and XL1-Blue for double cross-over recombination). Despite the fact that there are no public regulations yet in this domain in China, all experiments were performed in accordance with the European regulation requirements concerning the contained use of Genetically Modified Organisms of Group-I (French agreement N^o 2735). E. coli and B. subtilis were grown in Luria-Bertani (LB) medium and in ED minimal medium: K2HPO4, 8 mM; KH2PO4, 4,4 mM; glucose, 27 mM; Na3-citrate, 0.3 mM; L-glutamine, 15 mM; L-tryptophan, 0.244 mM; ferric citrate, 33.5 μM; MgSO4, 2 mM; MgCl2, 0.61 mM; CaCl2, 49.5 μM; FeCl3, 49.9 μM; MnCl2, 5.05 μM; ZnCl2, 12.4 μM; CuCl2, 2.52 μM; CoCl2, 2.5 μM; Na2MoO4, 2.48 μM. When methionine was used as sulfur source (1 mM), MgSO4 was replaced by MgCl2 at the same magnesium concentration (2 mM). For assaying growth on plates, either the MgSO4 containing medium or the sulfur-free basal medium was used (MgSO4 was replaced by MgCl2 as described above). In the latter case, 10 [μl of the sulfur source under investigation was applicated onto paper discs (MTR, 200 mM stock solution and methionine, 100 mM stock solution) deposited at the center of the plate, after bacteria had been uniformly spread at the surface of the plate, and growth was measured around the disK. In some cases MTR was used directly in the plate as sulfur source (0.2 mM). When necessary IPTG was included at 1 mM concentration. When xylose was added to the medium (0.5%) in order to trigger the expression of genes under the control of Pxyl inducible promoter, fructose was used as carbon source instead of glucose. LB and ED plates were prepared by addition of 17 g/liter Bacto agar or Agar Noble (Difco), respectively, to the medium. When included, antibiotics were added to the following concentrations: ampicillin, 100 mg/liter; chloramphenicol, 50 mg/liter; spectinomycin, 100 mg/liter; erythromycin plus lincomycin, 1 mg/liter and 25 mg/liter. Bacteria were grown at 37° C. The optical density (OD) of bacterial cultures was measured at 600 nm. MTR was prepared from MTA (Sigma, D5011) by acid hydrolysis as described by Schlenk. 3-fluoromethythiorybose (3F-MM, 5-thio-5-5-S-trifluoromethyl-D-ribose) was synthesised accordingly to [6, 20]. When added directly to the ED1 medium plate, 3F-MTR was used at 100 mg/liter concentration and when applicated onto paper discs 100 mM stock solution was used. For anaerobic growth on plates, the Anaerocult A (Merck) within an anaerobiosis jar for CO2 production with simultanious O2 absorbtion was used. Sulfur-free ED1 minimal medium plates were supplemented to 1% glucose final concentration and with 0.5% sodium pyruvate and 20 mM sodium nitrate as electron acceptor. Plates were incubated at 37° C. for 4 days with the sulfur source under investigation.

SMILES: CSC[C@@H](O)[C@@H](O)[C@@H](O)C=O [MTR, methylthioribose]
- MTR as sulfur source [1]: excellent sulfur source
- Growth on MTR as sole sulfur source ([2]; Wild type strain 168, + O2, four days): normal growth after four days
- Growth on MTR as sole sulfur source ([2]; Wild type strain 168, anaerobic growth, nitrate as electron acceptor, four days (table row printed '+ O2')): failed to grow; also recorded: no growth after four days
- Use of MTR as the methionine source ([2]; methionine auxotrophs): can be used as the methionine source
- Growth on MTR as sole sulfur source ([2]; mtnK mutant, strain BFS1850): no growth; also recorded: failed to grow
- Growth on MTR as sole sulfur source ([2]; mtnS mutant, strain BSHP7010): no growth; also recorded: failed to grow
- Growth on MTR as sole sulfur source ([2]; mtnU mutant, strain BFS1851): failed to grow; also recorded: no growth (numerous revertants)
- Growth on MTR as sole sulfur source ([2]; mtnV mutant, strain BSHP7020): normal growth; also recorded: no visible effect on growth
- Growth on MTR ([2]; mtnW inactivated with a polar effect on the distal genes): lack of growth
- Growth on MTR as sole sulfur source ([2]; mtnW mutant, strain BSHP7014 (downstream genes expressed)): no growth; also recorded: failed to grow
- Growth on MTR as sole sulfur source ([2]; mtnX mutant, strain BFS1852, IPTG added): normal growth; also recorded: recovered its growth properties
- Growth on MTR as sole sulfur source ([2]; mtnY mutant, strain BSHP7016): no growth; also recorded: failed to grow
- Growth on MTR as sole sulfur source ([2]; mtnZ mutant, strain BFS1853): partial growth; also recorded: very weak (residual) growth; also recorded: very weak, residual growth; also recorded: weak residual growth
